Data published in patent publication US8334382B2, “Substituted biaryl piperazinyl-pyridine analogues” (Neurogen Corporation, priority 2004, dated 2012).

target: T1, human capsaicin receptor (Homo sapiens, UniProt Q8NER1); assay: Calcium mobilization assay, determination of antagonist activity; assay type: cell-based; details: capsaicin at EC50; cells expressing human capsaicin receptor; Example 6
T1 construct: expressed in transfected cells; host or cells: HEK293, stably transfected with pBK-CMV construct
Outline: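 IC50 is the antagonist level giving a 50% drop in the capsaicin (EC50) calcium signal, read by FLIPR in Fluo-3 AM-loaded stable HEK293 lines bearing full-length human receptor. Compounds at 1-5 µM final were preincubated 0.5-6 h, room temperature, dark, in KRH pH 7.4.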

T1 sequence (Q8NER1 whole entry): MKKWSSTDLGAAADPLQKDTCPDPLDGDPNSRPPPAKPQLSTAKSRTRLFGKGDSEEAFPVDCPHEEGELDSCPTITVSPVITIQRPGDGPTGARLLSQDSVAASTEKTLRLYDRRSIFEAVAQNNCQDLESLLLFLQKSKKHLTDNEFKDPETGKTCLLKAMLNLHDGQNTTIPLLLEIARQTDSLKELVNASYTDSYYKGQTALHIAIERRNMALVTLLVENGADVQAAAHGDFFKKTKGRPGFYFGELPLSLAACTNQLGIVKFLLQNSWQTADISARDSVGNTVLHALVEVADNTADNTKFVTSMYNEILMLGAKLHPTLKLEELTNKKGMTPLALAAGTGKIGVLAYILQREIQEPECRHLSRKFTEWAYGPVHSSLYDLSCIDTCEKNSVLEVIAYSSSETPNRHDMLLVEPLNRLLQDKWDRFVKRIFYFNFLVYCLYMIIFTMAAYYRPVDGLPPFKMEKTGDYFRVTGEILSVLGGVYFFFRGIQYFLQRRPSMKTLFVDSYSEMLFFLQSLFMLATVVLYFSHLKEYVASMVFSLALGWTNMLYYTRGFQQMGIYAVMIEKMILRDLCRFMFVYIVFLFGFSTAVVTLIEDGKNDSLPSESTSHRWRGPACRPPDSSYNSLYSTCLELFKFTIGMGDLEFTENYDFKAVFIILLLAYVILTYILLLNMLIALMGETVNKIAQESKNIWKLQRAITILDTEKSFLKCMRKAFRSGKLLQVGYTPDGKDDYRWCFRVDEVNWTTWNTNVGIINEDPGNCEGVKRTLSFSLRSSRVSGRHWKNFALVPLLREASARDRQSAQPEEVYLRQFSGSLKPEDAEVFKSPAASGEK

IC50, ≤ 1000 nM:
Cc1cc(C(=O)N2CCOCC2)cnc1N1CCN(c2cc(-c3ccc(F)cc3)nc(N3CCCC3C)n2)CC1 (stereo not drawn) [Example 124, 4-[(6-{4-[6-(4-fluorophenyl)-2-(2-methylpyrrolidin-1-yl)pyrimidin-4-yl]piperazin-1-yl}-5-methylpyridin-3-yl)carbonyl]morpholine]
Cc1cc(C(=O)N2CCC(C)CC2)cnc1N1CCN(c2cc(-c3ccc(F)cc3)nc(N3CCCC3C)n2)CC1 (stereo not drawn) [Example 125, 4-(4-fluorophenyl)-6-(4-{3-methyl-5-[(4-methylpiperidin-1-yl)carbonyl]pyridin-2-yl}piperazin-1-yl)-2-(2-methylpyrrolidin-1-yl)pyrimidine]
Cc1cc(C(=O)N2CCCCCC2)cnc1N1CCN(c2cc(-c3ccc(F)cc3)nc(N3CCCC3C)n2)CC1 (stereo not drawn) [Example 126, l-[(6-{4-[6-(4-fluorophenyl)-2-(2-methylpyrrolidin-1-yl)pyrimidin-4-yl]piperazin-1-yl}-5-methylpyridin-3-yl)carbonyl]azepane]
Cc1cc(C(=O)N2CCSCC2)cnc1N1CCN(c2cc(-c3ccc(F)cc3)nc(N3CCCC3C)n2)CC1 (stereo not drawn) [Example 127, 4-[(6-{4-[6-(4-fluorophenyl)-2-(2-methylpyrrolidin-1-yl)pyrimidin-4-yl]piperazin-1-yl}-5-methylpyridin-3-yl)carbonyl] thiomorpholine]
Cc1cc(C(=O)N2CCCCC2C)cnc1N1CCN(c2cc(-c3ccc(F)cc3)nc(N3CCCC3C)n2)CC1 (stereo not drawn) [Example 128, 4-(4-fluorophenyl)-6-(4-{3-methyl-5-[(2-methylpiperidin-1-yl)carbonyl]pyridin-2-yl}piperazin-1-yl)-2-(2-methylpyrrolidin-1-yl)pyrimidine]
Cc1cc(C(=O)N(C)C2CCCCC2)cnc1N1CCN(c2cc(-c3ccc(F)cc3)nc(N3CCCC3C)n2)CC1 (stereo not drawn) [Example 129, N-cyclohexyl-6-{4-[6-(4-fluorophenyl)-2-(2-methylpyrrolidin-1-yl)pyrimidin-4-yl]piperazin-1-yl}-N,5-dimethylnicotinamide]
Cc1cc(C(=O)N2CCC(c3ccccc3)CC2)cnc1N1CCN(c2cc(-c3ccc(F)cc3)nc(N3CCCC3C)n2)CC1 (stereo not drawn) [Example 130, 4-(4-fluorophenyl)-6-(4-{3-methyl-5-[(4-phenylpiperidin-1-yl)carbonyl]pyridin-2-yl}piperazin-1-yl)-2-(2-methylpyrrolidin-1-yl)pyrimidine]
Cc1cc(C(=O)N2CCN(C)CC2)cnc1N1CCN(c2cc(-c3ccc(F)cc3)nc(N3CCCC3C)n2)CC1 (stereo not drawn) [Example 131, 4-(4-fluorophenyl)-6-(4-{3-methyl-5-[(4-methylpiperazin-1-yl)carbonyl]pyridin-2-yl}piperazin-1-yl)-2-(2-methylpyrrolidin-1-yl)pyrimidine]
COCCN1CCN(C(=O)c2cnc(N3CCN(c4cc(-c5ccc(F)cc5)nc(N5CCCC5C)n4)CC3)c(C)c2)CC1 (stereo not drawn) [Example 132, 4-(4-fluorophenyl)-6-[4-(5-{[4-(2-methoxyethyl)piperazin-1-yl]carbonyl}-3-methylpyridin-2-yl)piperazin-1-yl]-2-(2-methylpyrrolidin-1-yl)pyrimidine]
Cc1cc(C(=O)N2CCN(C3CCCC3)CC2)cnc1N1CCN(c2cc(-c3ccc(F)cc3)nc(N3CCCC3C)n2)CC1 (stereo not drawn) [Example 133, 4-(4-{5-[(4-cyclopentylpiperazin-1-yl)carbonyl]-3-methylpyridin-2-yl}piperazin-1-yl)-6-(4-fluorophenyl)-2-(2-methylpyrrolidin-1-yl)pyrimidine]
CC(=O)N1CCN(C(=O)c2cnc(N3CCN(c4cc(-c5ccc(F)cc5)nc(N5CCCC5C)n4)CC3)c(C)c2)CC1 (stereo not drawn) [Example 134, 4-(4-{5-[(4-acetylpiperazin-1-yl)carbonyl]-3-methylpyridin-2-yl}piperazin-1-yl)-6-(4-fluorophenyl)-2-(2-methylpyrrolidin-1-yl)pyrimidine]
Cc1cc(C(=O)N2CCCC2C)cnc1N1CCN(c2cc(-c3ccc(F)cc3)nc(N3CCCC3C)n2)CC1 (stereo not drawn) [Example 135, 4-(4-fluorophenyl)-6-(4-{3-methyl-5-[(2-methylpyrrolidin-1-yl)carbonyl]pyridin-2-yl}piperazin-1-yl)-2-(2-methylpyrrolidin-1-yl)pyrimidine]
Cc1cc(C(=O)N(C)CCN(C)C)cnc1N1CCN(c2cc(-c3ccc(F)cc3)nc(N3CCCC3C)n2)CC1 (stereo not drawn) [Example 136, N-[2-(dimethylamino)ethyl]-6-{4-[6-(4-fluorophenyl)-2-(2-methylpyrrolidin-1-yl)pyrimidin-4-yl]piperazin-1-yl}-N,5-dimethylnicotinamide]
Cc1cc(C(=O)N(C)CCCN(C)C)cnc1N1CCN(c2cc(-c3ccc(F)cc3)nc(N3CCCC3C)n2)CC1 (stereo not drawn) [Example 137, N-[3-(dimethylamino)propyl]-6-{4-[6-(4-fluorophenyl)-2-(2-methylpyrrolidin-1-yl)pyrimidin-4-yl]piperazin-1-yl}-N,5-dimethylnicotinamide]
Cc1cc(C(=O)N(C)C2CCN(C)C2)cnc1N1CCN(c2cc(-c3ccc(F)cc3)nc(N3CCCC3C)n2)CC1 (stereo not drawn) [Example 138, 6-{4-[6-(4-fluorophenyl)-2-(2-methylpyrrolidin-1-yl)pyrimidin-4-yl]piperazin-1-yl}-N,5-dimethyl-N-(1-methylpyrrolidin-3-yl)nicotinamide]
Cc1cc(C(=O)N2CCC(N(C)C)C2)cnc1N1CCN(c2cc(-c3ccc(F)cc3)nc(N3CCCC3C)n2)CC1 (stereo not drawn) [Example 139, l-[(6-{4-[6-(4-fluorophenyl)-2-(2-methylpyrrolidin-1-yl)pyrimidin-4-yl]piperazin-1-yl}-5-methylpyridin-3-yl)carbonyl]-N,N-dimethylpyrrolidin-3 amine]
CC(=O)NC1CCN(C(=O)c2cnc(N3CCN(c4cc(-c5ccc(F)cc5)nc(N5CCCC5C)n4)CC3)c(C)c2)C1 (stereo not drawn) [Example 140, N-{l-[(6-{4-[6-(4-fluorophenyl)-2-(2-methylpyrrolidin-1-yl)pyrimidin-4-yl]piperazin-1-yl}-5-methylpyridin-3-yl)carbonyl]pyrrolidin-3-yl}acetamide]
COC1CCN(C(=O)c2cnc(N3CCN(c4cc(-c5ccc(F)cc5)nc(N5CCCC5C)n4)CC3)c(C)c2)CC1 (stereo not drawn) [Example 141, 4-(4-fluorophenyl)-6-(4-{5-[(4-methoxypiperidin-1-yl)carbonyl]-3-methylpyridin-2-yl}piperazin-1-yl)-2-(2-methylpyrrolidin-1-yl)pyrimidine]
Cc1cc(C(=O)N2CCC(F)(F)CC2)cnc1N1CCN(c2cc(-c3ccc(F)cc3)nc(N3CCCC3C)n2)CC1 (stereo not drawn) [Example 142, 4-(4-{5-[(4,4-difluoropiperidin-1-yl)carbonyl]-3-methylpyridin-2-yl}piperazin-1-yl)-6-(4-fluorophenyl)-2-(2-methylpyrrolidin-1-yl)pyrimidine]
C[C@@H]1CN(c2ncc(C(N)=O)cc2Cl)CCN1c1cc(-c2ccc(F)cc2)nc(N2CCOC[C@H]2C)n1 [Example 143, 5-Chloro-6-{4-[6-(4-fluoro-phenyl)-2-(3-(R)-methyl-morpholin-4-yl)-pyrimidin-4-yl]-3-(R)-methyl-piperazin-1-yl}-nicotinamide]
Cc1ccc(C(=O)O)nc1N1CCN(c2cc(-c3ccc(F)cc3)nc(N3CCC[C@H]3C)n2)[C@H](C)C1 [Example 144, 6-{4-[6-(4-Fluoro-phenyl)-2-(2-(R)-methyl-pyrrolidin-l-yl)-pyrimidin-4-yl]-3-(R)-methyl-piperazin-1-yl}-5-methyl-pyridine-2-carboxylic acid]
Cc1ccc(C(N)=O)nc1N1CCN(c2cc(-c3ccc(F)cc3)nc(N3CCC[C@H]3C)n2)[C@H](C)C1 [Example 145, 6-{4-[6-(4-Fluoro-phenyl)-2-(2-(R)-methyl-pyrrolidin-1-yl)-pyrimidin-4-yl]-3-(R)-methyl-piperazin-1-yl}-5-methyl-pyridine-2-carboxylic acid amide]
C[C@@H]1CN(c2ncc(CO)cc2Cl)CCN1c1cc(-c2ccc(F)c(Cl)c2)nc(N2CCC[C@H]2C)n1 [Example 146, (5-Chloro-6-{4-[6-(3-chloro-4-fluoro-phenyl)-2-(2-(R)-methyl-pyrrolidin-1-yl)-pyrimidin-4-yl]-3-(R)-methyl-piperazin-1-yl}-pyridin-3-yl)-methanol]
CC1CCCN1c1nc(-c2ccc(F)cc2)cc(N2CCN(c3ncc(C(C)(C)O)cc3Cl)CC2)n1 (stereo not drawn) [Example 147, 2-(5-Chloro-6-{4-[6-(4-fluoro-phenyl)-2-(2-methyl-pyrrolidin-1-yl)-pyrimidin-4-yl]-piperazin-1-yl}-pyridin-3-yl)-propan-2-ol]
CC(O)c1cnc(N2CCN(c3cc(-c4ccc(F)cc4)nc(N4CCCC4C)n3)CC2)c(Cl)c1 (stereo not drawn) [Example 148, l-(5-Chloro-6-{4-[6-(4-fluoro-phenyl)-2-(2-methyl-pyrrolidin-1-yl)-pyrimidin-4-yl]-piperazin-1-yl}-pyridin-3-yl)-ethanol]
C[C@@H]1CN(c2ncc(C(=O)NCCO)cc2Cl)CCN1c1cc(-c2ccc(F)c(Cl)c2)nc(N2CCC[C@H]2C)n1 [Example 149, 5-Chloro-6-{4-[6-(3-chloro-4-fluoro-phenyl)-2-(2-(R)-methyl-pyrrolidin-1-yl)-pyrimidin-4-yl]-3-(R)-methyl-piperazin-1-yl}-N-(2-hydroxy-ethyl)-nicotinamide]
Cc1cc(C(=O)O)cnc1N1CCN(c2cc(-c3ccc(F)cc3)nc(N3CCOC[C@H]3C)n2)[C@H](C)C1 [Example 150, 6-{4-[6-(4-Fluoro-phenyl)-2-(3-(R)-methyl-morpholin-4-yl)-pyrimidin-4-yl]-3-(R)-methyl-piperazin-1-yl}-5-methyl-nicotinic acid]
